Assay [1] deals with 5637 cells. The arrangement: method as in Tessmann et al., 2017. The note with it: human bladder cancer cell line; ref Tessmann et al., 2017; cited from earlier work.
The subject of assay [2] is MDA-MB-468 cells. The experiment in a line: MTT cell viability assay, MDA-MB-468. The assay is classed as cell-based, human. The note with it: mean ± SD of triplicate. As for the experimental part:
(§1) The MDA-MB-468 cells were maintained in DMEM/Ham’s F12 supplemented with L-glutamine, with 10% fetal bovine serum and 1% penicillin/streptomycin. The AGO1522 cell line was cultured in DMEM/Low Glucose, with 10% fetal bovine serum and 1% penicillin/ streptomycin. Cells were incubated at 37°C, 5% CO2 and every 2-3 days at the confluency of 80%, the cells were harvested from the culture flask by Trypsin-EDTA.
(§2) Cell viability was measured with the MTT assay. The reduction of the tetrazolium salt, to a blue formazan crystal is facilitated by mitochondrial dehydrogenase and NADPH-dependent cellular oxidoreductase enzymes (Abel and Baird, 2018). In the assay, an aliquot of 7.5 × 10^3 cells was seeded on the 96-well plates and allowed to attach overnight. Then, 11 Pyrazole derivatives (as shown in Table 1 and Figure S1) were added to the desired well with the final concentration of 3, 6.25, 12.5, 25, 50, 100 μM. After pre-treating cells for 24 and 48h, MTT (5 mg/ml in PBS) was added to each well and the cells were incubated for another 4 h at 37°C. In order to dissolve blue-colored formazan crystals, the entire medium was aspirated after the incubation period, and DMSO was added to the wells. An ELISA plate reader (BioTek Instruments, Inc., USA) was used to quantify the formazan concentration (with the wavelengths of 570 nm). All of the experiments were carried out on three replicates to ensure the measurement repeatability and the IC50 values were also calculated using GraphPad Prism software.

The subject of assay [3] is AGO1522 cells. Nature of the assay: MTT cell viability assay, AGO1522 normal fibroblasts. The assay is classed as cell-based. The note with it: Homo sapiens, Fibroblast, mean ± SD of triplicate. As for the experimental part:
as §1, §2

Assay [4] relates to MDA-MB-468 cells. The experiment in a line: Annexin V-FITC/PI apoptosis detection by flow cytometry. Type of assay: cell-based, human. The note with it: 14.97 µM, 24 h, MDA-MB-468, compared with untreated cells. The method, then: Annexin V-FITC/PI Apoptosis Detection Kit was employed to detect apoptosis. To assess the number of apoptotic cells, an aliquot of MDA-MB-468 cells was adjusted to obtain 2 × 10^5 cells per well in six-well plates followed by incubation for an overnight. After incubation cells on the surface for an appropriate time, compound 3f was added to the wells to obtain the final concentration of 14.7μM in wells for 24 h. Cells were then harvested from the culture wells by aspirating media and washing with ice-cold PBS. Once the cells have detached, resuspended cells were pipetted up and down thoroughly followed by transferring to a sterilized 5 ml centrifuge tube. After 15min, 400 µl of the binding buffer was added to the cell suspension. Then annexin V-FITC and PI staining solution were added to the tubes. The cell suspension was then placed in a dark place (10 min at room temperature). A flow cytometer (BD Biosciences, San Jose, CA) was used to analyze the cells. The analysis of data was made using FlowJo software.

For assay [5], the system named is MDA-MB-468 cells. Nature of the assay: Cell cycle analysis by PI staining and flow cytometry. The assay is classed as cell-based, human. The note with it: 14.97 μM, 24 h. As for the experimental part:
Cell cycle analysis was conducted through taking advantage of PI staining and flow cytometry analysis. To evaluate cellular DNA levels, the cells stained with PI were subjected to ﬂow cytometric analyses. In this assay, six-well plates were loaded with 2 × 10^5 MDA-MB-468 cells / well. After incubation of the samples at 37°C for 24 h, cells were treated with 3f at concentrations of 14.7 μM followed 24 h incubation. Then, the effect of the drug became evident and cells collected by rinsing with PBS (two times), immobilizing with 70% ice-cold ethanol (for 3 h), and washing with PBS (two times). To resuspend the cells a mixture of 0.25 ml PBS containing 5 μl of 10 mg/ml RNase A and Triton X-100 (0.1%) including 10μl of PI (50 μg/ml) was used and incubation was performed at 37°C for 30 min in a dark place. The assessment of stain cells was carried out employing a FACS Calibur flow cytometer (BD Biosciences, San Jose, CA). The apoptotic rate of the cell population was measured by calculating the percentage of cells with sub-G1 DNA content.

Assay [6] has as its system MDA-MB-468 cells. The experiment in a line: Intracellular ROS detection with DCFH-DA. The note with it: 14.97 μM, 24 h, MDA-MB-468, DCFH-DA fluorimetry, vs untreated. The assay is classed as cell-based, human. As for the experimental part: The level of intracellular ROS corresponded to the MDA-MB-468 cells in response to the 3f compound was monitored by using DCFH-DA. Briefly, 7.5 × 10^3 MDA-MB-468 cells were seeded per well of 96-wells plate and allowed to attach to the bottom of the wells for an overnight followed by treatment with 3f compound at a concentration of 14.7 μM. After incubation of cells for 24 h, PBS was used for rinsing and then cells incubated in the presence of DCFH-DA for 30 min at 37°C. Next, to remove the extracellular DCFH-DA, cells were washed three times with prechilled PBS. Finally, the fluorescent of collected cells was analyzed by using a fluorescent microplate reader (BioTek Synergy HT, Winooski, VT, USA).

For assay [7], the system named is caspase-3 in MDA-MB-468 cells. The experiment in a line: Caspase-3 activity, DEVD-AFC fluorometric assay. The assay is classed as cell-based, human. The conditions noted are these: 14.97 μM, 24 h, MDA-MB-468, vs untreated. The method, then: From a mechanistic point of view, caspase 3 as a member of the cysteine-aspartic protease family is essential for a variety of biological activities, including apoptosis in mammalian cells (Skiba et al., 2019). To confirm the drug triggers apoptosis, the level of 7-amino-4-trifluoromethyl-coumarin (AFC) from DEVD-AFC, a marker of caspase 3 activation, was measured using Caspase-3/CPP32 Fluorometric Assay Kit (BioVision Research Products, Mountain View, CA, USA). Briefly, MDA-MB-468 cells (a density of 7.5 × 10^3 per well in 96-wells plate) were treated with 14.97 μM 3f for 24 h. The following day, cells were collected, washed two times in PBS and lysed in lysis buffer (for 10 min on ice). The concentration of protein was assessed and 50 µL of supernatant containing 50-200 µg protein was added to the 50 µL of 2x reaction buffer and 5 μl of DEVD-AFC substrate (1 mM), in a 96-wells plate. The mixture was then left at 37°C for 2 hours followed by monitoring the fluorescence intensity using a fluorescent microplate reader (BioTek Synergy HT, Winooski, VT, USA).

Where [8] appears, read: Homo sapiens, MDA-MB-468, 24 h, 24 h treatment, read-out: IC50, MDA-MB-468, 24 hours.
Setting [9] is: Homo sapiens, MDA-MB-468, 48 h, 48 h treatment, read-out: IC50, MDA-MB-468, 48 hours.
[10] abbreviates: 24 h treatment, read-out: IC50, AGO1522, 24 hours.
[11] abbreviates: 48 h treatment, read-out: IC50, AGO1522, 48 hours.

Values joined by “and” are separate entries in the source; they are usually repeats but may differ in a detail not shown here. Equal values may be shown once. Read-outs that look alike come from different tables or passages of the source.

Results on 14 compounds are retold here after publication PMC8607110, “Pyrazole Derivatives Induce Apoptosis via ROS Generation in the Triple Negative Breast Cancer Cells, MDA-MB-468” (Asian Pacific Journal of Cancer Prevention : APJCP, 2021).

In the case of `NC(=S)N1N=C(c2ccccc2)CC1c1ccccc1` (stereo not shown) [2a, 1-thiocarbamoyl-3,5-diphenyl-4,5-dihydro-1H-Pyrazole], in assay [1], the “cell cycle progression of 5637 cells” value was “inhibited cell cycle progression”.
For the compound `NC(=S)N1N=C(c2ccccc2)CC1c1ccc(Cl)cc1` (stereo not shown) [2c, 1-thiocarbamoyl-5-(4-chlorophenyl)-3-phenyl-4,5-dihydro-1H-Pyrazole], in assay [1], the “cell cycle progression of 5637 cells” value is given as “inhibited cell cycle progression”.
As for `COc1cc(C2CC(c3ccccc3)=NN2c2ccccc2)cc(OC)c1OC` (stereo not shown) [3a, 1,3-diphenyl-5-(3,4,5-trimethoxyphenyl)-4,5-dihydro-1H-Pyrazole], the IC50 in assay [2] (setting [8]) turned out to be 25 µM; in assay [2] (setting [9]) it was 6.41 ± 1.1 µM; in assay [3] (setting [10]), 28.8 ± 0.95 µM; in assay [3] (setting [11]) it was 19.9 ± 0.83 µM.
Taken in the same sequence, the figures for `COc1cc(C2CC(c3ccccc3)=NN2c2ccc(C)cc2)cc(OC)c1OC` (stereo not shown) [3b, 3-phenyl-1-(p-tolyl)-5-(3,4,5-trimethoxyphenyl)-4,5-dihydro-1H-Pyrazole] were 19.2 ± 0.97 µM, 9.29 ± 0.67 µM, 29.8 ± 1.02 µM and 19.8 ± 0.96 µM.
Taken in the same sequence, the figures for `COc1cc(C2CC(c3ccccc3)=NN2c2ccc(Cl)cc2)cc(OC)c1OC` (stereo not shown) [3c, 1-(4-chlorophenyl)-3-phenyl-5-(3,4,5-trimethoxyphenyl)-4,5-dihydro-1H-Pyrazole] were 58.6 ± 0.82 µM, 19.9 ± 1.12 µM, 24.1 ± 0.65 µM and 17.7 ± 0.93 µM.
For `COc1cc(C2CC(c3ccccc3)=NN2c2ccc(F)cc2)cc(OC)c1OC` (stereo not shown) [3d, 1-(4-fluorophenyl)-3-phenyl-5-(3,4,5-trimethoxyphenyl)-4,5-dihydro-1H-Pyrazole] the same measures were 32.6 ± 1.22 µM, 15.2 ± 0.9 µM, 42.1 ± 1.27 µM and 35.6 ± 1.32 µM.
As to `COc1ccc(C2=NN(c3ccccc3)C(c3cc(OC)c(OC)c(OC)c3)C2)cc1` (stereo not shown) [3e, 3-(4-methoxyphenyl)-1-phenyl-5-(3,4,5-trimethoxyphenyl)-4,5-dihydro-1H-Pyrazole], the IC50 in assay [2] (setting [8]) is 21.3 ± 0.85 µM; in assay [2] (setting [9]) it was 10.8 ± 0.93 µM; in assay [3] (setting [10]), 42.8 ± 0.98 µM; in assay [3] (setting [11]) it was 19.9 ± 0.99 µM.
Consider `COc1ccc(C2=NN(c3ccc(C)cc3)C(c3cc(OC)c(OC)c(OC)c3)C2)cc1` (stereo not shown) [3f, 3-(4-methoxyphenyl)-1-(p-tolyl)-5-(3,4,5-trimethoxyphenyl)-4,5-dihydro-1H-Pyrazole], for which the half-inhibitory concentration (IC50) in assay [2] (48 h treatment, read-out: IC50, MDA-MB-468, 48 hours) is 6.45 ± 0.84 µM; in assay [2] (setting [8]), 15 ± 1.09 µM; in assay [2] (setting [9]) it was 6.4 µM; in assay [3] (setting [10]), 28.7 ± 1.2 µM; in assay [3] (setting [11]) it was 20.3 ± 0.83 µM. The compound further registered an apoptosis value in assay [4] of 38%. The compound further returned a G1 cell fraction in assay [5] of 50.52%. In addition, in assay [5], the G2 cell fraction is 6.28%. The “S phase cell fraction” value in assay [5] was 35% and 35.01%. Besides, the Sub-G1 cell fraction in assay [5] and in assay [5] (as worded in text) was 8.12% in each case. The compound also showed a Super-G2 cell fraction in assay [5] of 0.07%. Moreover, the cell cycle effect result in assay [5] was “induced cell cycle arrest in S phase”. Further, the “intracellular ROS level” value in assay [6] was “ascending trend”. For the same compound, the caspase-3 activity result in assay [7] is “significantly increased”.
As to `COc1ccc(C2=NN(c3ccc(Cl)cc3)C(c3cc(OC)c(OC)c(OC)c3)C2)cc1` (stereo not shown) [3g, 1-(4-chlorophenyl)-3-(4-methoxyphenyl)-5-(3,4,5-trimethoxyphenyl)-4,5-dihydro-1HPyrazole], the IC50 came to 25.8 ± 0.91 µM in assay [2] (setting [8]), 8.5 ± 0.89 µM in assay [2] (setting [9]), 43.3 ± 0.96 µM in assay [3] (setting [10]) and 34 ± 1.92 µM in assay [3] (setting [11]).
Take `COc1cc(-c2cc(-c3ccccc3)nn2-c2ccccc2)cc(OC)c1OC` [4a, 1,3-diphenyl-5-(3,4,5-trimethoxyphenyl)-1H-Pyrazole]: the IC50 was 19.4 ± 1.14 µM in assay [2] (setting [8]), 11 ± 0.88 µM in assay [2] (setting [9]), 31.2 ± 1.24 µM in assay [3] (setting [10]) and 14.5 ± 0.97 µM in assay [3] (setting [11]).
Taken in the same sequence, the figures for `COc1ccc(-c2cc(-c3cc(OC)c(OC)c(OC)c3)n(-c3ccc(C)cc3)n2)cc1` [4b, 3-(4-methoxyphenyl)-1-(p-tolyl)-5-(3,4,5-trimethoxyphenyl)-1H-Pyrazole] were 58.2 ± 1.35 µM, 12 ± 0.94 µM, 34.6 ± 0.89 µM and 27 ± 0.79 µM.
For `COc1ccc(-c2cc(-c3cc(OC)c(OC)c(OC)c3)n(-c3ccc(Cl)cc3)n2)cc1` [4c, 1-(4-chlorophenyl)-3-(4-methoxyphenyl)-5-(3,4,5-trimethoxyphenyl)-1H-Pyrazole] the same measures were 28.8 ± 0.98 µM, 12.4 ± 0.79 µM, 25.2 ± 0.88 µM and 20.9 ± 0.92 µM.
Taken in the same sequence, the figures for `COc1ccc(-c2cc(-c3cc(OC)c(OC)c(OC)c3)n(-c3ccc(F)cc3)n2)cc1` [4d, 1-(4-fluorophenyl)-3-(4-methoxyphenyl)-5-(3,4,5-trimethoxyphenyl)-1H-Pyrazole] were 58.6 ± 1.32 µM, 24.5 ± 1.17 µM, 34.4 ± 1.31 µM and 27.3 ± 0.94 µM.
`CC(=O)O[C@H]1C(=O)[C@@]2(C)[C@H]([C@H](OC(=O)c3ccccc3)[C@]3(O)C[C@H](OC(=O)[C@H](O)[C@@H](NC(=O)c4ccccc4)c4ccccc4)C(C)=C1C3(C)C)[C@]1(OC(C)=O)CO[C@@H]1C[C@@H]2O` [Paclitaxel, reference compound]: the IC50 was 49.9 ± 0.97 µM in assay [2] (setting [8]), 25.2 ± 1.27 µM in assay [2] (setting [9]), 42.9 ± 1.42 µM in assay [3] (setting [10]) and 22.6 ± 0.91 µM in assay [3] (setting [11]).
